Columns and labels:
Assay type in all cases: cell-based
Details in all cases: 72 h; human CD4+ T cells under TH17-polarizing conditions, 3 days; supernatant ELISA
IL-17F = test: Human TH17 cytokine inhibition as measured by ELISA (IL-17F)
Description: (§1) Human TH17 Cytokine Inhibition as Measured by ELISA Peripheral blood mononuclear cells (PBMCs) were sourced from freshly prepared leukocyte enriched plasma (buffy coat) from healthy donors (New York Blood Center). PBMCs were isolated by density gradient centrifugation using Ficoll-Paque™ PLUS (GE Healthcare). Human CD4+ T cells were seeded into 96-well plates (5×10^4 cells/well) and activated with plate-bound anti-human (h)-CD3 antibody and soluble h-aCD28 (both at 1 ug/ml; eBioscience) and differentiated into TH17 cells with 20 ng/mL h-IL-6, 5 ng/mL h-TGF-β1, 10 ng/mL h-IL-23 (eBioscience) and 10 ng/mL IL-1β (Miltenyi Biotec) in serum-free TexMACS Medium (Miltenyi Biotec) supplemented with 1% Penicillin/Streptomycin (Lonza) for 3 days. CD4+ T cells propagated under TH17-polarizing conditions were cultured in the presence or absence of various concentrations of compounds with a final concentration of 0.1% DMSO. Supernatants were collected and stored at −20° C. until assayed for IL-17A, IL-17F and IL-21 levels by “Ready-Set-Go” ELISA kits (eBioscience) as per manufacturer's instructions. Endpoint absorbance was read at 450 nm using a microplate reader (Perkin Elmer).

IL-21 = test: Human TH17 cytokine inhibition as measured by ELISA (IL-21)
Description: as §1

IL-17A = test: Human TH17 cytokine inhibition as measured by ELISA (IL-17A)
Description: as §1

Measured: IC50

O=C(c1ccccc1)N1C2CCC1C(CN1CCc3cc(-c4cn[nH]c4)ccc31)C2 (stereo not drawn) [Example 9, (2-((5-(1H-pyrazol-4-yl)-1H-indolin-1-yl)methyl)-7-azabicyclo[2.2.1]heptan-7-yl)(phenyl)methanone]
< 10 µM: all assays above

CC(C)CC(=O)N1C2CCC1C(Cn1ccc3cc(-c4cn[nH]c4)ccc31)C2 (stereo not drawn) [Example 14, 1-(2-((5-(1H-pyrazol-4-yl)-1H-indol-1-yl)methyl)-7-azabicyclo[2.2.1]heptan-7-yl)-3-methylbutan-1-one]
< 10 µM: all assays above

O=C(C1CCCCC1)N1C2CCC1C(Cn1ccc3cc(-c4cn[nH]c4)ccc31)C2 (stereo not drawn) [Example 12, (2-((5-(1H-pyrazol-4-yl)-1H-indol-1-yl)methyl)-7-azabicyclo[2.2.1]heptan-7-yl)(cyclohexyl)methanone]
< 10 µM: all assays above

O=C(Cc1ccccc1)N1C2CCC1C(Cn1ccc3cc(-c4cn[nH]c4)ccc31)C2 (stereo not drawn) [Example 10, 1-(2-((5-(1H-pyrazol-4-yl)-1H-indol-1-yl)methyl)-7-azabicyclo[2.2.1]heptan-7-yl)-2-phenylethanone]
< 10 µM: all assays above

O=C(CC1CCCCC1)N1C2CCC1C(Cn1ccc3cc(-c4cn[nH]c4)ccc31)C2 (stereo not drawn) [Example 13]
< 10 µM: all assays above

O=C(CCc1ccccc1)N1C2CCC1C(Cn1ccc3cc(-c4cn[nH]c4)ccc31)C2 (stereo not drawn) [Example 11, 1-(2-((5-(1H-pyrazol-4-yl)-1H-indol-1-yl)methyl)-7-azabicyclo[2.2.1]heptan-7-yl)-3-phenylpropan-1-one]
< 10 µM: all assays above

CC(C)C(=O)N1C2CCC1C(Cn1ccc3cc(-c4cn[nH]c4)ccc31)C2 (stereo not drawn) [Example 15, 1-(2-((5-(1H-pyrazol-4-yl)-1H-indol-1-yl)methyl)-7-azabicyclo[2.2.1]heptan-7-yl)-2-methylpropan-1-one]
< 10 µM: all assays above

— US20150252051A1, “RETINOIC ACID RECEPTOR-RELATED ORPHAN RECEPTOR MODULATORS AND USES THEREOF” (INNOV17 LLC, priority 2014, published 2015)
